# Marks after values point to notes of the source that are not given here.
# What was measured:
# AhR = target: T1, AhR (Homo sapiens, UniProt P35869); test: AhR agonism luciferase reporter gene assay in transfected HepG2 cells; format: cell-based; conditions: 16 h, ratio of treatment group to blank
# T1 construct: expressed in transfected cells; host or cells: HepG2
# T1 sequence (P35869 11-848): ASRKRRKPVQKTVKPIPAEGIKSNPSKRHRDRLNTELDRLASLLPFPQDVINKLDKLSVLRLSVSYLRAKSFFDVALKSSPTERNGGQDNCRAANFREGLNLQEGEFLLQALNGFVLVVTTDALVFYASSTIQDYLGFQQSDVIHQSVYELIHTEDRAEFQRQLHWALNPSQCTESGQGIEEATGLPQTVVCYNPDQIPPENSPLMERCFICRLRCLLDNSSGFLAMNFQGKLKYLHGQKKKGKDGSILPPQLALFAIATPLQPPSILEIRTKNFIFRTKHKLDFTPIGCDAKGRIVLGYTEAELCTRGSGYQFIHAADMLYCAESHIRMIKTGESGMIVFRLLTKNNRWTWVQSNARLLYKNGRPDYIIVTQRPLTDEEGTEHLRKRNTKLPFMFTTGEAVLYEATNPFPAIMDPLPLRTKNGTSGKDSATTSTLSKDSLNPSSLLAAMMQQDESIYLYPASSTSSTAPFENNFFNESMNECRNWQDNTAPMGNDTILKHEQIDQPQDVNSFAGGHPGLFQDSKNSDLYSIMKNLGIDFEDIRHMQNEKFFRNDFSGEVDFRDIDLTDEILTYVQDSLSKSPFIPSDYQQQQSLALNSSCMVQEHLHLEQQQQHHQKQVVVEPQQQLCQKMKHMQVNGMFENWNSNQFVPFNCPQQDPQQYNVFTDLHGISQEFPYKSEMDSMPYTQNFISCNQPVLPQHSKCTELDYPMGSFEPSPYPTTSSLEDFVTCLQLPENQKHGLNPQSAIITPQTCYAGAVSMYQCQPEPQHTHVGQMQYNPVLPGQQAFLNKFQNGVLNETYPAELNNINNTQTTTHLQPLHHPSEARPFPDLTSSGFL
# Protocol: When the cell confluence reached 80%, the culture medium was replaced with a fresh one, and the transfection working solution was added for transfection overnight. The formula of the working solution is as follows: 1 mL of Opti-MEM+7.5 μg of pCMV-AHR+7.5 μg of pTK-3×DRE-Luc+30 μL of lipo6000. • (2) Cell plating: The transfected cells were digested, prepared into a cell suspension at a concentration of 3×10^5 cells/mL, and then plated on a 96-well plate at 100 µL/well for adherent culture overnight. • (3) Formulation
# The prepared drug-containing culture media and a blank culture medium were added to the 96-well plate described above at 100 μL/well.
# atopic dermatitis = test: DNFB-induced atopic dermatitis mouse model (AD Score); format: in vivo, BALB/C mice; design: scale not given here; conditions: DNFB mice
# Protocol: 56 clean-grade BALB/C mice aged 6-8 weeks were subjected to 5 days of adaptive feeding and then randomized into 7 groups of 8 mice each: • A. Blank control group • B. Modeling+solvent group • C. Modeling+blank matrix group • D. Modeling+positive drug mometasone furoate group • E. Modeling+1 wt % of benvitimod group • F. […] The animal experiments were conducted in accordance with the Experimental Animal Feeding, Management and Use Guidelines of China Pharmaceutical University and in compliance with animal study ethics and regulations. As shown in the above procedures, the solvent control or DNFB was given in the morning for modeling; from day 5, the test compound ointment was administered once every afternoon at 50 mg/dose evenly on the skin surface. The specific administration method is as shown above; Specific procedures: […] Severity of atopic dermatitis was scored using the AD Score criteria The severity of the appearance of dermatitis was evaluated based on 4 indicators: A. erythema/bleeding; B. dryness; C. effusion/crusting; D. edema.
Structure (SMILES),AhR receptor agonistic fold (AhR; drug concentration 0.1 μM) [fold],AhR receptor agonistic fold (AhR; drug concentration 1 μM) [fold],further results
"Oc1cc(/C=C/c2ccccc2)cc(O)c1C1CCCC1 [Compound 1, (E)-2-cyclopentyl-5-styryl-1,3-benzenediol]",3.1 ± 0.3,12.1 ± 0.4,–
"Oc1cc(/C=C/c2ccc(Cl)cc2)cc(O)c1C1CCCC1 [Compound 3, (E)-2-cyclopentyl-5-(4-chlorostyryl)-1,3-benzenediol]",4.0 ± 0.5,18.2 ± 0.6,–
"Oc1cc(/C=C/c2ccc(Br)cc2)cc(O)c1C1CCCC1 [Compound 4, (E)-2-cyclopentyl-5-(4-bromostyryl)-1,3-benzenediol]",7.8 ± 0.1,14.4 ± 0.3,–
"Oc1cc(/C=C/c2ccccc2)cc(O)c1C1CCCCC1 [Compound 5, (E)-2-cyclohexyl-5-styryl-1,3-benzenediol]",5.8 ± 0.3,16.6 ± 0.7,–
"Oc1cc(/C=C/c2ccc(Cl)cc2)cc(O)c1C1CCCCC1 [Compound 7, (E)-2-cyclohexyl-5-(4-chlorostyryl)-1,3-benzenediol]",5.1 ± 0.4,9.5 ± 0.5,–
"Oc1cc(/C=C/c2ccc(Br)cc2)cc(O)c1C1CCCCC1 [Compound 8, (E)-2-cyclohexyl-5-(4-bromostyryl)-1,3-benzenediol]",5.2 ± 0.2,11.8 ± 0.7,–
"Oc1cc(/C=C/c2ccccc2Cl)cc(O)c1C1CCCCC1 [Compound 9, (E)-2-cyclohexyl-5-(2-chlorostyryl)-1,3-benzenediol]",4.9 ± 1.9,17.1 ± 2.5,–
"Oc1cc(/C=C/c2cccc(Cl)c2)cc(O)c1C1CCCCC1 [Compound 10, (E)-2-cyclohexyl-5-(3-chlorostyryl)-1,3-benzenediol]",4.5 ± 1.0,14.7 ± 2.3,–
"Oc1cc(/C=C/c2ccc(F)c(F)c2)cc(O)c1C1CCCCC1 [Compound 11, (E)-2-cyclohexyl-5-(3,4-difluorostyryl)-1,3-benzenediol]",6.6 ± 1.6,20.0 ± 1.6,–
"Oc1cc(/C=C/c2cccc(F)c2F)cc(O)c1C1CCCCC1 [Compound 12, (E)-2-cyclohexyl-5-(2,3-difluorostyryl)-1,3-benzenediol]",6.8 ± 0.1,17.1 ± 0.6,–
"Oc1cc(/C=C/c2cc(F)cc(F)c2)cc(O)c1C1CCCCC1 [Compound 13, (E)-2-cyclohexyl-5-(3,5-difluorostyryl)-1,3-benzenediol]",9.2 ± 1.2,14.6 ± 0.9,–
"Oc1cc(/C=C/c2ccc(F)c(F)c2F)cc(O)c1C1CCCCC1 [Compound 14, (E)-2-cyclohexyl-5-(2,3,4-trifluorostyryl)-1,3-benzenediol]",13.1 ± 2.4,20.8 ± 1.4,–
"Oc1cc(/C=C/c2cc(F)c(F)c(F)c2)cc(O)c1C1CCCCC1 [Compound 15, (E)-2-cyclohexyl-5-(3,4,5-trifluorostyryl)-1,3-benzenediol]",7.5 ± 1.8,22.2 ± 2.8,–
"Oc1cc(/C=C/c2cccc(F)c2)cc(O)c1C1CCCC1 [Compound 16, (E)-2-cyclopentyl-5-(3-fluorostyryl)-1,3-benzenediol]",6.0 ± 0.8,18.5 ± 2.9,–
"C[C@@H]1C[C@H]2[C@@H]3CCC4=CC(=O)C=C[C@]4(C)[C@@]3(Cl)[C@@H](O)C[C@]2(C)[C@@]1(OC(=O)c1ccco1)C(=O)CCl [Mometasone furoate, mometasone furoate, reference compound]",–,–,"Back AD score (atopic dermatitis; day 0, before ointment treatment (from day 5)): 0.00 ± 0.00; Back AD score (atopic dermatitis; day 4, before ointment treatment (from day 5)): 3.50 ± 0.61; Back AD score (atopic dermatitis; day 6, ointment 50 mg once daily from day 5 (1.2 wt % 2#/6#, 1 wt % benvitimod)): 5.38 ± 1.65**^b; Back AD score (atopic dermatitis; day 8, ointment 50 mg once daily from day 5 (1.2 wt % 2#/6#, 1 wt % benvitimod)): 6.50 ± 1.22**^a; Back AD score (atopic dermatitis; day 10, ointment 50 mg once daily from day 5 (1.2 wt % 2#/6#, 1 wt % benvitimod)): 5.00 ± 1.00**^aabb"
"CC(C)c1c(O)cc(/C=C/c2ccc(F)cc2)cc1O [Reference 2#, reference compound]",2.5 ± 1.1,7.8 ± 1.0,–
"O=Cc1c2[nH]c3ccccc3c2cc2[nH]c3ccccc3c12 [Reference 3#, FICZ, reference compound]",2.3 ± 0.2,4.3 ± 0.2,–

# From US20250382250A1, “STILBENE DERIVATIVE AS AHR AGONIST AND USE THEREOF” (NANJING GRITPHARMACO., LTD., priority 2022, published 2025)
